Experimental data: US20080153896A1, “Polymorphic Forms of an HMG-CoA Reductase Inhibitor and Uses Thereof” (priority 2006, published 2008)

Experiment: Stability (integrity) testing of amorphous and polymorphic form under storage conditions, RP-HPLC
Format: physicochemical
Set-up: Impurity RRT 1.104 / Impurity RRT 1.698: unit not given beside the values
Protocol: The integrity of the different forms of the (3R, 5R)-7-[2-(4-fluorophenyl)-5-isopropyl-3-phenyl-4-[(4-hydroxymethylphenylamino)carbonyl]-pyrrol-1-yl]-3,5-dihydroxy-heptanoic acid, hemi calcium salt, was tested under different atmospheric conditions to determine the stability of the amorphous and polymorphic form of the drug in various storage environments. Reversed Phase-HPLC (RP-HPLC) was used to separate (3R, 5R)-7-[2-(4-fluorophenyl)-5-isopropyl-3-phenyl-4-[(4-hydroxymethylphenylamino)carbonyl]-pyrrol-1-yl]-3,5-dihydroxy-heptanoic acid, hemi calcium salt, from smaller molecules representing breakdown products as well as oxidized drug. The relative amount of the drug was reported as a percent of total absorption by UV. The total peak area of all UV absorption impurities was used to define total impurity of the drug. Impurities are defined by their relative retention time (RRT) compared to native drug. Samples were injected onto a C18 column using standard temperature, gradient and run-time conditions.
The results of this integrity testing for the amorphous form of (3R, 5R)-7-[2-(4-fluorophenyl)-5-isopropyl-3-phenyl-4-[(4-hydroxymethylphenylamino)carbonyl]-pyrrol-1-yl]-3,5-dihydroxy-heptanoic acid, hemi calcium salt, is shown in Table 5.
Three separate batches of polymorphic Form I of (3R, 5R)-7-[2-(4-fluorophenyl)-5-isopropyl-3-phenyl-4-[(4-hydroxymethylphenylamino)carbonyl]-pyrrol-1-yl]-3,5-dihydroxy-heptanoic acid, hemi calcium salt, were prepared and tested under the same atmospheric conditions described for the amorphous form.

[1] = 25° C./60% RH 3M, hemi calcium salt
[2] = 25° C./60% RH 9M, hemi calcium salt

SMILES: CC(C)c1c(C(=O)Nc2ccc(CO)cc2)c(-c2ccccc2)c(-c2ccc(F)cc2)n1CC[C@@H](O)C[C@@H](O)CC(=O)[O-].CC(C)c1c(C(=O)Nc2ccc(CO)cc2)c(-c2ccccc2)c(-c2ccc(F)cc2)n1CC[C@@H](O)C[C@@H](O)CC(=O)[O-].[Ca+2] [PP00105, (3R, 5R)-7-[2-(4-fluorophenyl)-5-isopropyl-3-phenyl-4-[(4-hydroxymethylphenylamino)carbonyl]-pyrrol-1-yl]-3,5-dihydroxy-heptanoic acid, hemi calcium salt]
- Description (5° C. 1M): White
- Impurity RRT 1.096 (5° C. 1M): 0.248
- Impurity RRT 1.183 (5° C. 1M): 0.051
- Impurity RRT 1.439 (5° C. 1M): 0.17
- Impurity RRT 1.596 (5° C. 1M): 0.086
- Impurity RRT 1.698 (5° C. 1M): 0.068
- Assay (5° C. 1M, hemi calcium salt): 98.36 % W/W
- Highest Impurity (5° C. 1M, hemi calcium salt): 0.459
- Impurity RRT 0.935 (5° C. 1M, hemi calcium salt): 0.412
- Impurity RRT 1.045 (5° C. 1M, hemi calcium salt): 0.459
- Impurity RRT 1.64 (5° C. 1M, hemi calcium salt): 0.063
- Total Impurity (5° C. 1M, hemi calcium salt): 1.56
- Water (5° C. 1M, hemi calcium salt): 4.45 % W/W
- Description (5° C. 2M): White
- Impurity RRT 1.096 (5° C. 2M): 0.233
- Impurity RRT 1.183 (5° C. 2M): 0.06
- Impurity RRT 1.439 (5° C. 2M): 0.163
- Impurity RRT 1.596 (5° C. 2M): 0.079
- Impurity RRT 1.698 (5° C. 2M): 0.07
- Assay (5° C. 2M, hemi calcium salt): 98.24 % W/W
- Highest Impurity (5° C. 2M, hemi calcium salt): 0.443
- Impurity RRT 0.935 (5° C. 2M, hemi calcium salt): 0.413
- Impurity RRT 1.045 (5° C. 2M, hemi calcium salt): 0.443
- Impurity RRT 1.64 (5° C. 2M, hemi calcium salt): 0.06
- Total Impurity (5° C. 2M, hemi calcium salt): 1.52
- Water (5° C. 2M, hemi calcium salt): 4.31 % W/W
- Description (5° C. 3M): White
- Impurity RRT 1.096 (5° C. 3M): 0.216
- Impurity RRT 1.439 (5° C. 3M): 0.150
- Impurity RRT 1.596 (5° C. 3M): 0.068
- Impurity RRT 1.698 (5° C. 3M): 0.068
- Total Impurity (5° C. 3M): 1.35
- Assay (5° C. 3M, hemi calcium salt): 98.19 % W/W
- Highest Impurity (5° C. 3M, hemi calcium salt): 0.414
- Impurity RRT 0.935 (5° C. 3M, hemi calcium salt): 0.376
- Impurity RRT 1.045 (5° C. 3M, hemi calcium salt): 0.414
- Impurity RRT 1.64 (5° C. 3M, hemi calcium salt): 0.055
- Water (5° C. 3M, hemi calcium salt): 3.90 % W/W
- Description (5° C. 4M): White
- Impurity RRT 0.138 (5° C. 4M): 0.228
- Impurity RRT 1.096 (5° C. 4M): 0.205
- Impurity RRT 1.439 (5° C. 4M): 0.159
- Impurity RRT 1.596 (5° C. 4M): 0.060
- Impurity RRT 1.698 (5° C. 4M): 0.052
- Assay (5° C. 4M, hemi calcium salt): 98.17 % W/W
- Highest Impurity (5° C. 4M, hemi calcium salt): 0.427
- Impurity RRT 0.935 (5° C. 4M, hemi calcium salt): 0.341
- Impurity RRT 1.045 (5° C. 4M, hemi calcium salt): 0.427
- Impurity RRT 1.640 (5° C. 4M, hemi calcium salt): 0.051
- Total Impurity (5° C. 4M, hemi calcium salt): 1.523
- Water (5° C. 4M, hemi calcium salt): 5.08 % W/W
- Description (5° C. 5M): White
- Impurity RRT 0.138 (5° C. 5M): 0.22
- Impurity RRT 1.096 (5° C. 5M): 0.236
- Impurity RRT 1.439 (5° C. 5M): 0.122
- Impurity RRT 1.596 (5° C. 5M): 0.054
- Impurity RRT 1.698 (5° C. 5M): 0.065
- Assay (5° C. 5M, hemi calcium salt): 98.27 % W/W
- Highest Impurity (5° C. 5M, hemi calcium salt): 0.401
- Impurity RRT 0.935 (5° C. 5M, hemi calcium salt): 0.373
- Impurity RRT 1.045 (5° C. 5M, hemi calcium salt): 0.401
- Impurity RRT 1.640 (5° C. 5M, hemi calcium salt): 0.047
- Total Impurity (5° C. 5M, hemi calcium salt): 1.527
- Water (5° C. 5M, hemi calcium salt): 4.67 % W/W
- Description (5° C. 6M): White
- Impurity RRT 0.138 (5° C. 6M): 0.238
- Impurity RRT 1.096 (5° C. 6M): 0.189
- Impurity RRT 1.183 (5° C. 6M): 0.056
- Impurity RRT 1.439 (5° C. 6M): 0.146
- Impurity RRT 1.596 (5° C. 6M): 0.080
- Impurity RRT 1.698 (5° C. 6M): 0.059
- Water (5° C. 6M): 5.04 % W/W
- Assay (5° C. 6M, hemi calcium salt): 98.61 % W/W
- Highest Impurity (5° C. 6M, hemi calcium salt): 0.438
- Impurity RRT 0.935 (5° C. 6M, hemi calcium salt): 0.373
- Impurity RRT 1.045 (5° C. 6M, hemi calcium salt): 0.438
- Impurity RRT 1.640 (5° C. 6M, hemi calcium salt): 0.048
- Total Impurity (5° C. 6M, hemi calcium salt): 1.627
- Description (5° C. 9M): White
- Impurity RRT 0.138 (5° C. 9M): 0.228
- Impurity RRT 1.096 (5° C. 9M): 0.205
- Impurity RRT 1.439 (5° C. 9M): 0.188
- Impurity RRT 1.596 (5° C. 9M): 0.061
- Impurity RRT 1.698 (5° C. 9M): 0.082
- Assay (5° C. 9M, hemi calcium salt): 97.96 % W/W
- Highest Impurity (5° C. 9M, hemi calcium salt): 0.400
- Impurity RRT 0.935 (5° C. 9M, hemi calcium salt): 0.366
- Impurity RRT 1.045 (5° C. 9M, hemi calcium salt): 0.400
- Impurity RRT 1.640 (5° C. 9M, hemi calcium salt): 0.056
- Total Impurity (5° C. 9M, hemi calcium salt): 1.586
- Water (5° C. 9M, hemi calcium salt): 4.64 % W/W
- Description (5° C. 12M): White
- Impurity RRT 0.138 (5° C. 12M): 0.259
- Impurity RRT 1.096 (5° C. 12M): 0.208
- Impurity RRT 1.183 (5° C. 12M): 0.033
- Impurity RRT 1.439 (5° C. 12M): 0.141
- Impurity RRT 1.596 (5° C. 12M): 0.053
- Impurity RRT 1.698 (5° C. 12M): 0.045
- Assay (5° C. 12M, hemi calcium salt): 98.27 % W/W
- Highest Impurity (5° C. 12M, hemi calcium salt): 0.412
- Impurity RRT 0.935 (5° C. 12M, hemi calcium salt): 0.392
- Impurity RRT 1.045 (5° C. 12M, hemi calcium salt): 0.412
- Impurity RRT 1.640 (5° C. 12M, hemi calcium salt): 0.050
- Total Impurity (5° C. 12M, hemi calcium salt): 1.593
- Water (5° C. 12M, hemi calcium salt): 5.03 % W/W
- Description (25° C./60% RH 3M): White
- Impurity RRT 1.096 (25° C./60% RH 3M): 0.214
- Impurity RRT 1.439 (25° C./60% RH 3M): 0.158
- Impurity RRT 1.596 (25° C./60% RH 3M): 0.067
- Impurity RRT 1.698 (25° C./60% RH 3M): 0.065
- Assay [1]: 98.15 % W/W
- Highest Impurity [1]: 0.427
- Impurity RRT 0.935 [1]: 0.383
- Impurity RRT 1.045 [1]: 0.427
- Impurity RRT 1.64 [1]: 0.051
- Total Impurity [1]: 1.37
- Water [1]: 4.74 % W/W
- Assay (25° C./60% RH 6M): 98.15 % W/W
- Description (25° C./60% RH 6M): White
- Highest Impurity (25° C./60% RH 6M): 0.405
- Impurity RRT 0.138 (25° C./60% RH 6M): 0.113
- Impurity RRT 0.935 (25° C./60% RH 6M): 0.338
- Impurity RRT 1.045 (25° C./60% RH 6M): 0.405
- Impurity RRT 1.096 (25° C./60% RH 6M): 0.233
- Impurity RRT 1.439 (25° C./60% RH 6M): 0.142
- Impurity RRT 1.596 (25° C./60% RH 6M): 0.066
- Impurity RRT 1.640 (25° C./60% RH 6M): 0.035
- Impurity RRT 1.698 (25° C./60% RH 6M): 0.056
- Total Impurity (25° C./60% RH 6M): 1.388
- Water (25° C./60% RH 6M): 5.04 % W/W
- Description (25° C./60% RH 9M): White
- Impurity RRT 0.138 (25° C./60% RH 9M): 0.111
- Impurity RRT 1.096 (25° C./60% RH 9M): 0.212
- Impurity RRT 1.183 (25° C./60% RH 9M): 0.039
- Impurity RRT 1.439 (25° C./60% RH 9M): 0.155
- Impurity RRT 1.596 (25° C./60% RH 9M): 0.042
- Impurity RRT 1.698 (25° C./60% RH 9M): 0.063
- Assay [2]: 98.06 % W/W
- Highest Impurity [2]: 0.389
- Impurity RRT 0.935 [2]: 0.375
- Impurity RRT 1.045 [2]: 0.389
- Impurity RRT 1.640 [2]: 0.045
- Total Impurity [2]: 1.431
- Water [2]: 5.31 % W/W
- Description (25° C./60% RH 12M): White
- Impurity RRT 0.138 (25° C./60% RH 12M): 0.199
- Impurity RRT 1.096 (25° C./60% RH 12M): 0.212
- Impurity RRT 1.183 (25° C./60% RH 12M): 0.036
